# Results published in patent US9113629B2, “4-amino-6-(4-substituted-phenyl)-picolinates and 6-amino-2-(4-substituted-phenyl)-pyrimidine-4-carboxylates and their use as herbicides” (DOW AGROSCIENCES LLC, priority 2013, dated 2015).
# Read-outs that look alike come from different tables or passages of the source.
# Columns and labels:
# [1] = system: Key Grass and Sedge Weeds as well as Grass Crops; test: Post-emergent Test II herbicidal activity (Table 6); assay type: in vivo; settings: post-emergence, 336 h; for pest or weed control at 70 g/ha: application rate 70 g ai/ha; for pest or weed control at 140 g/ha: application rate 140 g ai/ha
# Summary of the method: (§1)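 Percent injury, 0 (none) to 100 (complete kill), was judged visually 14 d after spraying young plants at the first or second true leaf stage with compound in an acetone/DMSO aqueous carrier at 187 L/ha. Plants were kept in a greenhouse at 23–29 °C by day.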
# [2] = system: Key Broadleaf Weed and Crop Species; test: Post-emergent Test II herbicidal activity (Table 5); assay type: in vivo; settings: post-emergence, 336 h, post-emergent, 14 days after application; for pest or weed control at 70 g/ha: 70 g ai/ha; for pest or weed control at 140 g/ha: 140 g ai/ha
# Summary of the method: as §1
# [3] = CYPES: yellow nutsedge (Cyperus esculentus), read-out: Visual Growth Reduction (%) 14 Days After Application, CYPES
# [4] = DIGSA: crabgrass (Digitaria sanguinalis), read-out: Visual Growth Reduction (%) 14 Days After Application, DIGSA
# [5] = ECHCG: barnyardgrass (Echinochloa crus-galli), read-out: Visual Growth Reduction (%) 14 Days After Application, ECHCG
# [6] = ORYSA: rice (Oryza sativa), read-out: Visual Growth Reduction (%) 14 Days After Application, ORYSA
# [7] = SETFA: giant foxtail (Setaria faberi), read-out: Visual Growth Reduction (%) 14 Days After Application, SETFA
# [8] = SORVU: grain sorghum (Sorghum vulgare), read-out: Visual Growth Reduction (%) 14 Days After Application, SORVU
# [9] = TRZSS (wheat, Triticum aestivum), read-out: Visual Growth Reduction (%) 14 Days After Application, TRZSS
# [10] = ZEAMX: maize, corn (Zea mays), read-out: Visual Growth Reduction (%) 14 Days After Application, ZEAMX
# [11] = ABUTH: velvetleaf (Abutilon theophrasti), read-out: Visual Growth Reduction (%) 14 Days After Application ABUTH
# [12] = AMARE: redroot pigweed (Amaranthus retroflexus), read-out: Visual Growth Reduction (%) 14 Days After Application AMARE
# [13] = BRSNN: oilseed-rape, canola (Brassica napus), read-out: Visual Growth Reduction (%) 14 Days After Application BRSNN
# [14] = CHEAL: lambsquarters (Chenopodium album), read-out: Visual Growth Reduction (%) 14 Days After Application CHEAL
# [15] = EPHHL: wild poinsettia (Euphorbia heterophylla), read-out: Visual Growth Reduction (%) 14 Days After Application EPHHL
# [16] = HELAN: sunflower (Helianthus annuus), read-out: Visual Growth Reduction (%) 14 Days After Application HELAN
# [17] = VIOTR: wild pansy (Viola tricolor), read-out: Visual Growth Reduction (%) 14 Days After Application VIOTR
structure (smiles),measurement,setting,value
"Nc1cc(-c2c(F)cc(Br)c(F)c2F)nc(C(=O)O)c1Cl [Compound 162, 4-amino-6-(4-bromo-2,3,6-trifluorophenyl)-3-chloropicolinic acid]",pest or weed control at 70 g/ha,[1]; [3],95 to 100%
same,pest or weed control at 140 g/ha,[1]; [3],45 to 59%
same,pest or weed control at 70 g/ha,[1]; [4],75 to 84%
same,pest or weed control at 140 g/ha,[1]; [4],75 to 84%
same,pest or weed control at 70 g/ha,[1]; [5],85 to 94%
same,pest or weed control at 140 g/ha,[1]; [5],75 to 84%
same,pest or weed control at 70 g/ha,[1]; [6],45 to 59%
same,pest or weed control at 140 g/ha,[1]; [6],45 to 59%
same,pest or weed control at 70 g/ha,[1]; [7],85 to 94%
same,pest or weed control at 140 g/ha,[1]; [7],75 to 84%
same,pest or weed control at 70 g/ha,[1]; [8],85 to 94%
same,pest or weed control at 140 g/ha,[1]; [8],95 to 100%
same,pest or weed control at 70 g/ha,[1]; [9],45 to 59%
same,pest or weed control at 140 g/ha,[1]; [9],45 to 59%
same,pest or weed control at 70 g/ha,[1]; [10],60 to 74%
same,pest or weed control at 140 g/ha,[1]; [10],75 to 84%
same,pest or weed control at 70 g/ha,[2]; [11],85 to 94%
same,pest or weed control at 140 g/ha,[2]; [11],85 to 94%
same,pest or weed control at 70 g/ha,[2]; [12],95 to 100%
same,pest or weed control at 140 g/ha,[2]; [12],95 to 100%
same,pest or weed control at 70 g/ha,[2]; [13],95 to 100%
same,pest or weed control at 140 g/ha,[2]; [13],95 to 100%
same,pest or weed control at 70 g/ha,[2]; [14],95 to 100%
same,pest or weed control at 140 g/ha,[2]; [14],95 to 100%
same,pest or weed control at 70 g/ha,[2]; [15],95 to 100%
same,pest or weed control at 140 g/ha,[2]; [15],95 to 100%
same,pest or weed control at 70 g/ha,[2]; [16],85 to 94%
same,pest or weed control at 140 g/ha,[2]; [16],85 to 94%
same,pest or weed control at 70 g/ha,[2]; [17],95 to 100%
same,pest or weed control at 140 g/ha,[2]; [17],95 to 100%
